{
  "source": "patent US20240239790A1",
  "about": "“7-Morpholino-1,6-Naphthyridin-5-yl Derivatives and Pharmaceutical Compositions Thereof Useful as DNA-PK Inhibitor” (adMare Therapeutics Society, priority 2021, published 2024)",
  "key": {"FaDu cell line": {"tested_on": "FaDu cell line", "assay": "Prodrug Activation in Hypoxic Stirred Tumour Cell Suspensions", "settings": "10 μM, 4 hours"}, "[1]": {"tested_on": "pH2AX induction in HCT116 ATM-/- multicellular tumour spheroids", "assay": "Prodrug Radiation Sensitization in Multicellular Tumour Spheroids, inhibition of pH2AX induction following radiation", "assay_type": "cell-based", "settings": "Homo sapiens, HCT-116, 20 Gy", "description": "Prodrug compounds were assayed to determine their potency in 3D multicellular spheroids in media maintained under 20% vs 5% oxygen. Multicellular tumour spheroids were grown to approximately 0.5 mm in diameter and irradiated with 20 Gy in combination with inhibitor test compounds to determine their potency using HCT 116 and FaDu cell lines. Experiments were carried out in 96 well plates containing 0.7 mls of MEM media containing 10% FBS and 10 mM glucose under 5% CO2 at 37° C. Following dilution of compounds 1:1000 from DMSO stocks, compounds were serially diluted from 10 μM down to 3.5 nM and 5-10 spheroids added. 96 well plates were constantly stirred to avoid spheroids settling during the course of the experiment. Endpoints were pDNA-PK (ser 2056) or pH2AX (ser 139) status in spheroid cryosections taken 1 or 2 hours following radiation and fixed immediately in formalin. Using tumour cell lines deficient in ATM improved the assay signal to noise and gH2AX readout. Using this assay prodrug activity could be compared in the more oxygenated outer spheroid layers versus less oxygenated hypoxic central cell layers."}, "[2]": {"biological_target": "T1, DNA-PK phosphorylation at Serine 2056 (Homo sapiens, UniProt P78527)", "T1 construct": "FaDu cells were purchased from ATCC; host or cells: FaDu", "assay": "Cellular Assay for Inhibition of DNA-PK Phosphorylation at Serine 2056 in FaDu cells (sandwich ELISA, neocarzinostatin)", "assay_type": "cell-based", "settings": "pSer2056 DNA-PK, Table 3", "description": "FaDu cells were purchased from ATCC and maintained in MEM alpha medium (Life Technologies, cat. no. 12561) supplemented with 10% fetal bovine serum, and 1% GlutaMAX at 37° C. supplemented with 5% CO2. 50,000 cells were seeded to each well of a 96-well cell culture plate in 50 μL of culture medium and incubated for 16-24 hours. Three-fold serially diluted compounds were prepared in DMSO. Culture media was used to prepare compound treatments to 0.3% DMSO (dimethyl sulphoxide) content. Compound treatments were added to the cells for 1 hour prior incubation, followed by the addition of neocarzinostatin in fresh culture medium to 1 μg/mL final concentration for an additional 2 hours incubation to induce DNA DSBs (double-strand breaks). DMSO controls were incubated with fresh culture medium alone for the additional two hours incubation. The cells were then lysed and frozen at −20° C. Cell lysates were thawed on wet ice and protein concentrations quantified by BCA Protein Assay (Thermo #23225). Lysis buffer was used to normalize lysates by protein content and all lysates were then investigated by sandwich ELISA by means of DNA-PK-specific antibodies (Abcam ab44815: total DNA-PK; ab124918: phosphoserine-2056 DNA-PK) in sandwich ELISA format on the MSD S600MM platform (MesoScale Discovery). % inhibition was calculated for all data points: =1−(DATA_PT−AVERAGE(DMSO controls))/(AVERAGE(NCS controls)−AVERAGE(DMSO controls)). Logarithm of the molar concentration of compound was plotted against percent inhibition to calculate IC50 values, with curve fit settings for data fit to log(inhibitor) vs. normalized response—Variable slope using curve fit software (GraphPad Prism)."}, "[3]": {"settings": "5% O2, inner layers, read-out: Prodrug 5% O2 Inner layers EC50"}, "[4]": {"settings": "5% O2, outer layers, read-out: Prodrug 5% O2 Outer layers EC50"}, "[5]": {"settings": "20% O2, outer layers, read-out: Prodrug 20% O2 Outer layers EC50"}},
  "note": "Read-outs that look alike come from different tables or passages of the source.",
  "data": [
    {"smiles": "CC(c1cnc([N+](=O)[O-])n1C)N(c1cnc2cc(N3CCOCC3)nc(OC3CCC(c4cnccn4)CC3)c2c1)S(C)(=O)=O", "note": "(stereo not drawn) [LFA2043, N-[1-(3-methyl-2-nitro-imidazol-4-yl)ethyl]-N-[7-morpholino-5-(4-pyrazin-2-ylcyclohexoxy)-1,6-naphthyridin-3-yl]methanesulfonamide]", "values": [
      {"measurement": "Fraction of prodrug converted to active form, Hypoxic 0.2% O2", "setting": "FaDu cell line", "value": "B (B is 0.05 to 0.15)"},
      {"measurement": "Fraction of prodrug converted to active form, Oxic 5% O2", "setting": "FaDu cell line", "value": "D (D is 0 to 0.02)"},
      {"measurement": "EC50", "setting": "[1]; [3]", "value": "10 to 500", "unit": "nM"},
      {"measurement": "EC50", "setting": "[1]; [4]", "value": "500 to 1000", "unit": "nM"},
      {"measurement": "EC50", "setting": "[1]; [5]", "value": "1000 to 10000", "unit": "nM"},
      {"measurement": "IC50", "setting": "[2]", "value": "1000 to 10000", "unit": "nM"}
    ]},
    {"smiles": "Cn1c(CN(c2cnc3cc(N4CCOCC4)nc(OC4CCC(Nc5ncc(N6CCN(CCF)CC6)cn5)CC4)c3c2)S(C)(=O)=O)cnc1[N+](=O)[O-]", "note": "(stereo not drawn) [LFA2044, N-[5-[4-[[5-[4-(2-fluoroethyl)piperazin-1-yl]pyrimidin-2-yl]amino]cyclohexoxy]-7-morpholino-1,6-naphthyridin-3-yl]-N-[(3-methyl-2-nitro-imidazol-4-yl)methyl]methanesulfonamide]", "values": [
      {"measurement": "Fraction of prodrug converted to active form, Hypoxic 0.2% O2", "setting": "FaDu cell line", "value": "C (C is 0.02 to 0.05)"},
      {"measurement": "Fraction of prodrug converted to active form, Oxic 5% O2", "setting": "FaDu cell line", "value": "D (D is 0 to 0.02)"},
      {"measurement": "EC50", "setting": "[1]; [3]", "value": "10 to 500", "unit": "nM"},
      {"measurement": "EC50", "setting": "[1]; [4]", "value": "1000 to 10000", "unit": "nM"},
      {"measurement": "EC50", "setting": "[1]; [5]", "value": "1000 to 10000", "unit": "nM"},
      {"measurement": "IC50", "setting": "[2]", "value": "1000 to 10000", "unit": "nM"}
    ]},
    {"smiles": "Cn1c(CN(c2cnc3cc(N4CCOCC4)nc(OC4CCC(Nc5ncc(N6CCN(CC(F)(F)F)CC6)cn5)CC4)c3c2)S(C)(=O)=O)cnc1[N+](=O)[O-]", "note": "(stereo not drawn) [LFA2045, N-[(3-methyl-2-nitro-imidazol-4-yl)methyl]-N-[7-morpholino-5-[4-[[5-[4-(2,2,2-trifluoroethyl)piperazin-1-yl]pyrimidin-2-yl]amino]cyclohexoxy]-1,6-naphthyridin-3-yl]methanesulfonamide]", "values": [
      {"measurement": "Fraction of prodrug converted to active form, Hypoxic 0.2% O2", "setting": "FaDu cell line", "value": "D (D is 0 to 0.02)"},
      {"measurement": "Fraction of prodrug converted to active form, Oxic 5% O2", "setting": "FaDu cell line", "value": "D (D is 0 to 0.02)"},
      {"measurement": "EC50", "setting": "[1]; [3]", "value": "1000 to 10000", "unit": "nM"},
      {"measurement": "EC50", "setting": "[1]; [4]", "value": "1000 to 10000", "unit": "nM"},
      {"measurement": "EC50", "setting": "[1]; [5]", "value": "1000 to 10000", "unit": "nM"},
      {"measurement": "IC50", "setting": "[2]", "value": "10000 to 30000", "unit": "nM"}
    ]},
    {"smiles": "CC(c1cnc([N+](=O)[O-])n1C)N(c1cnc2cc(N3CCOCC3)nc(OC3CCC(Nc4ncc(N5CCN(CC(F)(F)F)CC5)cn4)CC3)c2c1)S(C)(=O)=O", "note": "(stereo not drawn) [LFA2046, N-[1-(3-methyl-2-nitro-imidazol-4-yl)ethyl]-N-[7-morpholino-5-[4-[[5-[4-(2,2,2-trifluoroethyl)piperazin-1-yl]pyrimidin-2-yl]amino]cyclohexoxy]-1,6-naphthyridin-3-yl]methanesulfonamide]", "values": [
      {"measurement": "Fraction of prodrug converted to active form, Hypoxic 0.2% O2", "setting": "FaDu cell line", "value": "D (D is 0 to 0.02)"},
      {"measurement": "Fraction of prodrug converted to active form, Oxic 5% O2", "setting": "FaDu cell line", "value": "D (D is 0 to 0.02)"},
      {"measurement": "EC50", "setting": "[1]; [3]", "value": "500 to 1000", "unit": "nM"},
      {"measurement": "EC50", "setting": "[1]; [4]", "value": "1000 to 10000", "unit": "nM"},
      {"measurement": "EC50", "setting": "[1]; [5]", "value": "1000 to 10000", "unit": "nM"},
      {"measurement": "IC50", "setting": "[2]", "value": "10000 to 30000", "unit": "nM"}
    ]},
    {"smiles": "CC(c1cnc([N+](=O)[O-])n1C)N(c1cnc2cc(N3CCOCC3)nc(OC3CCC(Nc4ncc(N5CCN(CC(F)F)CC5)cn4)CC3)c2c1)S(C)(=O)=O", "note": "(stereo not drawn) [LFA2047, N-[5-[4-[[5-[4-(2,2-difluoroethyl)piperazin-1-yl]pyrimidin-2-yl]amino]cyclohexoxy]-7-morpholino-1,6-naphthyridin-3-yl]-N-[1-(3-methyl-2-nitro-imidazol-4-yl)ethyl]methanesulfonamide]", "values": [
      {"measurement": "Fraction of prodrug converted to active form, Hypoxic 0.2% O2", "setting": "FaDu cell line", "value": "B (B is 0.05 to 0.15)"},
      {"measurement": "Fraction of prodrug converted to active form, Oxic 5% O2", "setting": "FaDu cell line", "value": "D (D is 0 to 0.02)"},
      {"measurement": "EC50", "setting": "[1]; [3]", "value": "10 to 500", "unit": "nM"},
      {"measurement": "EC50", "setting": "[1]; [4]", "value": "1000 to 10000", "unit": "nM"},
      {"measurement": "EC50", "setting": "[1]; [5]", "value": "1000 to 10000", "unit": "nM"},
      {"measurement": "IC50", "setting": "[2]", "value": "10000 to 30000", "unit": "nM"}
    ]},
    {"smiles": "Cn1c(CN(c2cnc3cc(N4CCOCC4)nc(OC4CCC(Nc5ncc(N6CCN(CC(F)F)CC6)cn5)CC4)c3c2)S(C)(=O)=O)cnc1[N+](=O)[O-]", "note": "(stereo not drawn) [LFA2048, N-[5-[4-[[5-[4-(2,2-difluoroethyl)piperazin-1-yl]pyrimidin-2-yl]amino]cyclohexoxy]-7-morpholino-1,6-naphthyridin-3-yl]-N-[(3-methyl-2-nitro-imidazol-4-yl)methyl]methanesulfonamide]", "values": [
      {"measurement": "Fraction of prodrug converted to active form, Hypoxic 0.2% O2", "setting": "FaDu cell line", "value": "B (B is 0.05 to 0.15)"},
      {"measurement": "Fraction of prodrug converted to active form, Oxic 5% O2", "setting": "FaDu cell line", "value": "D (D is 0 to 0.02)"},
      {"measurement": "EC50", "setting": "[1]; [3]", "value": "500 to 1000", "unit": "nM"},
      {"measurement": "EC50", "setting": "[1]; [4]", "value": "1000 to 10000", "unit": "nM"},
      {"measurement": "EC50", "setting": "[1]; [5]", "value": "500 to 1000", "unit": "nM"},
      {"measurement": "IC50", "setting": "[2]", "value": "10000 to 30000", "unit": "nM"}
    ]},
    {"smiles": "CC(Oc1cnc2cc(N3CCOCC3)nc(O[C@H]3CC[C@@H](Nc4ncc(OCCN5CCOCC5)cn4)CC3)c2c1)c1cnc([N+](=O)[O-])n1C", "note": "(stereo partly drawn) [LFA2049, N-[4-[[3-[1-(3-methyl-2-nitro-imidazol-4-yl)ethoxy]-7-morpholino-1,6-naphthyridin-5-yl]oxy]cyclohexyl]-5-(2-morpholinoethoxy)pyrimidin-2-amine]", "values": [
      {"measurement": "Fraction of prodrug converted to active form, Hypoxic 0.2% O2", "setting": "FaDu cell line", "value": "A (A is 0.15 to 1)"},
      {"measurement": "Fraction of prodrug converted to active form, Oxic 5% O2", "setting": "FaDu cell line", "value": "B (B is 0.05 to 0.15)"},
      {"measurement": "EC50", "setting": "[1]; [3]", "value": "10 to 500", "unit": "nM"},
      {"measurement": "EC50", "setting": "[1]; [4]", "value": "500 to 1000", "unit": "nM"},
      {"measurement": "EC50", "setting": "[1]; [5]", "value": "1000 to 10000", "unit": "nM"},
      {"measurement": "IC50", "setting": "[2]", "value": "100 to 1000", "unit": "nM"}
    ]}
  ]
}
